Consider 3 compounds from patent US20240083888A1, “SMALL MOLECULE INHIBITOR FOR CATHEPSIN C AND MEDICINAL USE THEREOF” (REISTONE BIOPHARMA COMPANY LIMITED, priority 2020, published 2024).

Series [1] is described as follows: Pharmacokinetic experiment in BALB/c mice. In kind it is in vivo. To be noted: for AUC(0-t) / clearance / half-life / Vd / Tmax / bioavailability: male, mouse, plasma; for Vd: read-out: Vdss. The method, then:
BALB/c mice (male, 20 to 30 g, fasting)
Pharmacokinetic characteristics of the compounds in rodent after intravenous or oral administration were determined by standard protocols. In the experiment, the compound was formulated into a clear solution, and administered to mice by single intravenous injection or oral administration. The intravenous injection vehicle was a mixed vehicle of 500 dimethyl sulfoxide and 9500 (3000 aqueous sulfobutylether cyclodextrin solution). The oral vehicle is a solution of 0.50% hydroxypropylmethylcellulose and 0.10% polysorbate 80 in water. Whole blood samples within 24 hours were collected, and the supernatants were separated to obtain plasma samples. Quantitative analysis of plasma concentration was carried out by LC-MS/MS analysis method, and the pharmacokinetic parameters, such as peak concentration (Cmax), clearance (Cl), half-life (T1/2), volume of distribution (Vdss) and area under the drug-time curve (AUC), were calculated.

Series [2] in a line: Pharmacokinetic experiment in beagle dogs. It is filed as in vivo. Details: clearance: unit not given here. As to conditions: for Vd: read-out: Vdss. The method, then:
Beagle dogs (male, 9 to 11 kg)
Pharmacokinetic characteristics of the compounds in beagle dogs after intravenous or oral administration were determined by standard protocols. In the experiment, the compound was formulated into a clear solution, and administered to beagle dogs by single intravenous injection or oral administration. The intravenous injection vehicle was a mixed vehicle of 5% dimethyl sulfoxide and 95% (28% aqueous hydroxypropyl beta cyclodextrin solution). The oral vehicle is a solution of 0.5% hydroxypropylmethylcellulose and 0.1% polysorbate 80 in water. Whole blood samples within 24 hours were collected, and the supernatants were separated to obtain plasma samples. The sample was centrifuged to obtain the supernatant, to which an equal volume of water was added. The resulting solution was centrifuged to obtain the supernatant, which was injected into the analysis machine. Quantitative analysis of plasma concentration was carried out by LC-MS/MS analysis method, and the pharmacokinetic parameters, such as peak concentration (Cmax), clearance (Cl), half-life (T1/2), volume of distribution (Vdss) and area under the drug-time curve (AUC), were calculated.

The subject of series [3] is neutrophil elastase (NE) downstream of CatC. Description: Target binding model in C57BL/6 mice: NE protease activity in bone marrow. In kind it is in vivo. As to conditions: 3 mg/kg PO, 8 days, bone marrow cell lysate, female C57BL/6 mice. The method, then:
1. Experimental protocol: In order to investigate the inhibitory effect of the compounds on the activity of neutrophil elastase (hereinafter referred to as NE) downstream of CatC in neutrophil, female C57BL/6 mice were administered according to the following table:
2. Experimental procedures: The compound or vehicle control was administered continuously for 8 days. On Day 1 to 7, the compound or vehicle control was administered twice a day with an administration interval of 6 hours. On Day 8, the test material was collected one hour after the first administration. […] The sample was washed once with Dulbecco's phosphate buffer, centrifuged at 400 g for 5 minutes and counted. […] The supernatant was stored at −80° C. until protease activity was determined. The protease activity in the cell lysates of each group was determined using the NE protease activity detection kit (Sigma-Aldrich MAK246). 7.5 μL of 3× diluted bone marrow cell lysate or 7.5 μL of double-diluted NE standard and 7.5 μL of 25× diluted substrate were added to a 384-well plate, and the NE protease activity was immediately monitored in real-time at Ex 380 nm and Em 500 nm for 30 minutes. The RFU within the linear reaction time was determined, and the NE protease activity (ng/ml) in the sample was calibrated by the standard curve.

In another series the target is CatC (Homo sapiens (Human), UniProt P53634). Description: In vitro CatC cell activity experiment in U937 cell line. It is filed as cell-based. The method, then:
The U937 cell line was resuscitated and passed for about two generations, and the cell line with good growth status was selected. The cell suspension was transferred into a centrifuge tube, and centrifuged at 800 to 1000 rpm for 3 to 5 minutes. The supernatant was discarded. An appropriate volume of culture medium was added to the centrifuge tube, which was gently pipetted to resuspend the cells evenly. The cells were counted using a Vi-Cell XR cell counter. The cell suspension was adjusted to an appropriate concentration. The cell suspension was added into a 384-well plate ([…]). The compound was formulated into a 10 mM solution with DMSO. The compound was diluted with DMSO to obtain a 1 mM solution, and a semi-logarithmi dilution was carried out by HPD300 with DMSO to obtain 10 concentrations. Gly-Phe-AFC was formulated into a 35 mM solution with DMSO and divided. […] After adding the compounds and incubating for 1 hour in an incubator, substrate-AFC was added (12.5 μL was added to the plate). The plate was incubated for 30 minutes and read. […] XLFit was used to draw the drug efficacy inhibition rate curve and calculate the IC50 value. 4-parameter model [fit=(A+((B−A)/(1+((C/x)^D))))] was used.

A further series has as its target rhCatC (Homo sapiens (Human), UniProt P53634). Briefly: In vitro enzyme activity experiment of rhCatC (AMC fluorescence assay). In kind it is biochemical. To be noted: rhCatC enzyme, substrate H-Gly-Arg-AMC; read-out: Biological activity IC50. The protocol: The in vitro inhibitory effect of compounds and positive control on rhCatC enzyme activity was evaluated by AMC fluorescence assay. rhCatC can catalyze the reaction of substrate peptide H-Gly-Arg-AMC, and release AMC to generate fluorescence. […] The compound was diluted with DMSO to a 384-well echo plate at a concentration of 100× of the highest concentration at the beginning of the experiment. 0.2 μL of the diluted compound was pipetted to a black-bottomed 384-well reaction plate for later use. The negative control well was DMSO. • 2) Activation of rhCatC: RhCatC and rhCatL were added to the activation buffer to obtain a final concentration of rhCatC of 100 μg/mL and a final concentration of rhCatL of 20 μg/mL, and incubated at room temperature for 1 hour. • 3) Enzyme activity reaction: Activated rhCatC was diluted to 0.4 μg/mL with the reaction buffer. The solution was added to the black-bottom 384-well reaction plate ([…]). 10 μL of the buffer was added for the vehicle control group. The plate containing compounds in its wells was incubated at room temperature for 30 minutes.
The RLU data was read, the inhibition rate was calculated, and the IC50 value was calculated according to the fitting curve of concentration and inhibition rate.

pIC50: −log10 of the molar value.

Chain of CatC (P53634 25-134): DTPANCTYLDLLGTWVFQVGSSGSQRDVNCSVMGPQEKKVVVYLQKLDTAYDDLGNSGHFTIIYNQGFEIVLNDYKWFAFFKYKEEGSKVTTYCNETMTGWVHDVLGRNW
Chain of CatC (P53634 231-394): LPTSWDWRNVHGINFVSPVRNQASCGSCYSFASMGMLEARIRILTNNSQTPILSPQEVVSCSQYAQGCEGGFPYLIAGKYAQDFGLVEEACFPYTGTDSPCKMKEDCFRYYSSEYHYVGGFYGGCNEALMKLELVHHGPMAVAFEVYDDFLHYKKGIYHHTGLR
Chain of CatC (P53634 395-463): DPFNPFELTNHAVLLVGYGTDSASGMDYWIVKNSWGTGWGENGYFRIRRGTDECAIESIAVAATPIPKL
Chain of rhCatC (P53634 25-134): as the sequence (P53634 25-134) above
Chain of rhCatC (P53634 231-394): as the sequence (P53634 231-394) above
Chain of rhCatC (P53634 395-463): as the sequence (P53634 395-463) above

`Cn1c(=O)oc2ccc(-c3ccc(C[C@@H](C#N)NC(=O)[C@@H]4CNCCCO4)cc3)cc21` [AZD7986, reference compound]: in series [1] (IV, 2 mg/kg), the AUC(0-t) was determined as 2.12 µg·h/mL, the clearance came out at 0.906 L/h/kg, the half-life was 2.74 h and the Vd is 2.34 L/kg. Further, in series [1] (PO, 5 mg/kg), the AUC(0-t) came to 2.13 µg·h/mL, the Tmax was 1.5 h, the bioavailability was found to be 40.2% and the half-life is 3.18 h. Moreover, in series [2] (male, dog, plasma, IV, 1 mg/kg), the AUC(0-t) was 1.41 µg·h/mL, the half-life is 13.5 h and the Vd turned out to be 9.26 L/kg. In series [2] (male, dog, plasma, PO, 2 mg/kg), the AUC(0-t) worked out at 3.67 µg·h/mL, the Tmax amounted to 1.67 h, the bioavailability is 104% and the half-life was 15.3 h.
Turning to `N#Cc1ccc2c(c1)COc1cc(C[C@@H](C#N)NC(=O)[C@@H]3CNCCCO3)c(F)cc1-2` [Compound 14, (S)—N—((S)-1-Cyano-2-(8-cyano-2-fluoro-6H-benzo[c]chromen-3-yl)ethyl)-1,4-oxazepane-2-carboxamide], the “PK properties compared with AZD7986” value in series [1] and in series [2] was “better PK properties than AZD7986” in each case. For the same compound, the “oral bioavailability compared with AZD7986” value in series [1] is reported as “increased”. The “decrease of clearance rate compared with AZD7986” value is “about 1.8 times” in series [1] (IV) and “about 3 times” in series [2] (IV). Further, the results for the “increase of intravenous exposure compared with AZD7986” value in series [1] (IV) and in series [2] (IV) were 1.8 times and 3.4 times, respectively. For the same compound, the “increase of oral exposure compared with AZD7986” value came out at 3.1 times in series [1] (PO) and 3.0 times in series [2] (PO). The exposure AUC(0-t) in series [1] (IV, 2 mg/kg) stood at 3.77 µg·h/mL; in series [1] (PO, 5 mg/kg) it was 6.61 µg·h/mL; in series [2] (male, dog, plasma, IV, 1 mg/kg) it was 4.79 µg·h/mL; in series [2] (male, dog, plasma, PO, 2 mg/kg) it was 10.9 µg·h/mL. Moreover, the clearance turned out to be 0.509 L/h/kg in series [1] (IV, 2 mg/kg) and 0.172 in series [2] (male, dog, plasma, IV, 1 mg/kg). For the same compound, the half-life in series [1] (IV, 2 mg/kg) was 3.08 h; in series [1] (PO, 5 mg/kg), 2.69 h; in series [2] (male, dog, plasma, IV, 1 mg/kg), 10.2 h; in series [2] (male, dog, plasma, PO, 2 mg/kg), 12.3 h. The Vd in series [1] (IV, 2 mg/kg) was found to be 1.75 L/kg; in series [2] (male, dog, plasma, IV, 1 mg/kg) it was 2.29 L/kg. The Tmax in series [1] (PO, 5 mg/kg) worked out at 0.5 h; in series [2] (male, dog, plasma, PO, 2 mg/kg), 3.33 h. In addition, the bioavailability in series [1] (PO, 5 mg/kg) came out at 65.3%; in series [2] (male, dog, plasma, PO, 2 mg/kg) it was 100%. In series [3], the “inhibitory rate of NE protease activity compared with AZD7986” value is listed as “higher inhibitory rate of NE protease activity than the reference compound AZD7986”. For the same compound, the pIC50 against CatC is 8.21; on rhCatC, 8.27.
For `N#Cc1ccc2c(c1)-c1cc(F)c(C[C@@H](C#N)NC(=O)[C@@H]3CNCCCO3)cc1OC2` [Compound 32, (S)—N—((S)-1-Cyano-2-(9-cyano-2-fluoro-6H-benzo[c]chromen-3-yl)ethyl)-1,4-oxazepane-2-carboxamide], in series [3], the “inhibitory rate of NE protease activity compared with AZD7986” value is reported as “higher inhibitory rate of NE protease activity than the reference compound AZD7986”. Further, the pIC50 against CatC is 8.15; on rhCatC it was 7.89.
